The values that follow come from ChEMBL document CHEMBL1201862, “PubChem BioAssay data set” (2004).

The source made the active and inactive calls.

Assay [1] addresses Hepatocyte nuclear factor 4-alpha (Homo sapiens, UniProt P41235). In kind it is functional, cell-based.
Assay [2] deals with T1, ATP-dependent translocase ABCB1 (Homo sapiens, UniProt P08183). In words: ABCG2 efflux pump inhibitor potency, dose response, Ig-MXP3 cells, JC-1, flow cytometry, set 2 (AID 504566).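 Note: flow cytometry median green fluorescence of retained JC-1 dye; potency of efflux pump inhibition measured as rising substrate retention.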 The assay is classed as functional. To be noted: read-out: EC50_MICROM_.
The target in assay [3] is T1, ATP-dependent translocase ABCB1. In words: ABCB1 efflux inhibitor potency, dose response, Jurkat-DNR cells, JC-1, flow cytometry, set 2 (AID 504569).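 Note: potency of pump inhibitors that raise cellular JC-1 green fluorescence up to the nicardipine level.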 The assay is classed as functional. To be noted: read-out: EC50_MICROM_. In general terms: Flow cytometry measures light scatter and fluorescence of single cells or particles in a stream.
In the next assay the target is Protein Wnt-3a (Mus musculus, UniProt P27467). The assay is described as follows: Wnt3a-driven reporter signaling inhibition, dose response, selectivity assay for Gli-SUFU antagonist project, Wnt-LIGHT cells, luminescence (AID 651570).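 Note: Wnt-LIGHT reporter cells stimulated with conditioned medium from Wnt3a-producing cells.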 To be noted: read-out: IC50_Mean. In kind it is functional.
A short description of assay [4]: ARNT/TACC3 interaction disruptors, potency, confirmation, biochemical, AlphaScreen, cherry-picked samples (AID 651703).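 Note: His-tagged ARNT PAS-B domain paired with GST-TACC3 E629A dimer coactivator fragment; potency of inhibitors that break up the complex and lower AlphaScreen signal.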 In kind it is functional, Homo sapiens. For orientation: Alpha assays give light when donor and acceptor beads are brought close together.
In assay [5] the target is T2, 1-phosphatidylinositol 4,5-bisphosphate phosphodiesterase gamma-1 (Homo sapiens, UniProt P19174).
T2 sequence (P19174 whole entry): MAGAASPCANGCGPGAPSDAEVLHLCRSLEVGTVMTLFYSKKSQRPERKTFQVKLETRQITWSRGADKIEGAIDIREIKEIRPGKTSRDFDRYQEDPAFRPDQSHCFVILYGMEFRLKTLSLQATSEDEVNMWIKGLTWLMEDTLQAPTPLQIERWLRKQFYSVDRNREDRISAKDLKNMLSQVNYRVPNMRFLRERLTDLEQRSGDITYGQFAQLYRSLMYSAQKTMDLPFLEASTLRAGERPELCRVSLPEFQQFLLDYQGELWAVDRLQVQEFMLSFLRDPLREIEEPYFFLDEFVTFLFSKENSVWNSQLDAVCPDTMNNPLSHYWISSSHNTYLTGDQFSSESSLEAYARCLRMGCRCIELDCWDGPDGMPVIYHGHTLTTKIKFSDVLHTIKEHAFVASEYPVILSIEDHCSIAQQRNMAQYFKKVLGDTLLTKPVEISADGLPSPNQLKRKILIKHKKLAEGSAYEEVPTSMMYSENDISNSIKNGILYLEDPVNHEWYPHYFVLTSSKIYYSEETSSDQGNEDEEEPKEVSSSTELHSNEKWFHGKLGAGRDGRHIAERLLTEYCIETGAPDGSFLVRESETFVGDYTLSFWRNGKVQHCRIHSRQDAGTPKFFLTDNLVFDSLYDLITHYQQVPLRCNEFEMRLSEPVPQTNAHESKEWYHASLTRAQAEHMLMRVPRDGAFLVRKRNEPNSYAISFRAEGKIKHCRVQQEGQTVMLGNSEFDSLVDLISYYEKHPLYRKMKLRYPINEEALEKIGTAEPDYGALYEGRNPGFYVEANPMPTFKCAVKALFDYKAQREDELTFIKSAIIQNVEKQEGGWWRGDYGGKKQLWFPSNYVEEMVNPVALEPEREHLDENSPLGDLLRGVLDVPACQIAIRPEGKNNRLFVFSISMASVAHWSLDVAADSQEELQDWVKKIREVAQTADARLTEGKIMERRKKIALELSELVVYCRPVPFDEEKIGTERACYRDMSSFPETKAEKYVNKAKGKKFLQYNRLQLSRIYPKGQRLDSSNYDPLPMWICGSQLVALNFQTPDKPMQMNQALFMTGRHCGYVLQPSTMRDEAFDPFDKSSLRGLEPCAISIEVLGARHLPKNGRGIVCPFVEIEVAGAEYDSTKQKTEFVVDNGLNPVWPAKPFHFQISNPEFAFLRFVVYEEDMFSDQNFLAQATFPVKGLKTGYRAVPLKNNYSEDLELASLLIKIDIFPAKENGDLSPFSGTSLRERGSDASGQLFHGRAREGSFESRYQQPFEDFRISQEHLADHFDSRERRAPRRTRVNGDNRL
In words: Counterscreen for inhibitors of phospholipase C isozymes (PLC-B3): Fluorescence-based biochemical high throughput dose response assay to identify inhibitors of phospholipase C isozymes (PLC-gamma1).

The target in assay [6] is T3, 1-phosphatidylinositol 4,5-bisphosphate phosphodiesterase beta-3 (Homo sapiens, UniProt Q01970).
T3 sequence (Q01970 whole entry): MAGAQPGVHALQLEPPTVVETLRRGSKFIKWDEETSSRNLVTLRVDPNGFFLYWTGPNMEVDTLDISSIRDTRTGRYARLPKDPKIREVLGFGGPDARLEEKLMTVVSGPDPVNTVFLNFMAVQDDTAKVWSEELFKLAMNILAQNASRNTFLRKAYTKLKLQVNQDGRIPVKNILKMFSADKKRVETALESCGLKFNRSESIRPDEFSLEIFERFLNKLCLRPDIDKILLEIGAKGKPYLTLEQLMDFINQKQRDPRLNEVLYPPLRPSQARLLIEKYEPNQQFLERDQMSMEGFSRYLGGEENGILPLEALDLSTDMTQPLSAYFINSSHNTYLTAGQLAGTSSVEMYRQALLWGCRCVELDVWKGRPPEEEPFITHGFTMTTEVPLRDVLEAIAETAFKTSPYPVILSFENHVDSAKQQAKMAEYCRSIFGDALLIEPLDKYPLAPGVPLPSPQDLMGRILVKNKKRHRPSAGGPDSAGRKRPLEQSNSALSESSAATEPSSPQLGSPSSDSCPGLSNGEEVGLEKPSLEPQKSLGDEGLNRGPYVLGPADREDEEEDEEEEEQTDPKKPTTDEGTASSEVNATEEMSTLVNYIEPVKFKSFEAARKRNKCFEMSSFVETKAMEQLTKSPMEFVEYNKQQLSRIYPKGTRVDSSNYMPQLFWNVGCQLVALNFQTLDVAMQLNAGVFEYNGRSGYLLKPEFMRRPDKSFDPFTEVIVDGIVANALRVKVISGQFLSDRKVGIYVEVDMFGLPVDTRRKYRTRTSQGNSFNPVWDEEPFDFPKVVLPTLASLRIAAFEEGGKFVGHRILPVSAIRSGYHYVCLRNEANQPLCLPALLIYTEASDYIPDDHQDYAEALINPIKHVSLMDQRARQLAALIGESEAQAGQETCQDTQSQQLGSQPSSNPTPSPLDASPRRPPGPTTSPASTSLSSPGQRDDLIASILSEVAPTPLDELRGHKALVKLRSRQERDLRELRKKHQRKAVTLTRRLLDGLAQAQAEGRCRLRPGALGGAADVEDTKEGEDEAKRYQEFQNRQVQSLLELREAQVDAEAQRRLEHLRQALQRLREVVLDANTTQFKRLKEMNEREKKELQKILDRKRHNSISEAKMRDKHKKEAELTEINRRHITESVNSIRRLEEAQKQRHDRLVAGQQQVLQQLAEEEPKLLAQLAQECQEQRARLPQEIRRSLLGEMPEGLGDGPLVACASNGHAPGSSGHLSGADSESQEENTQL
In words: Fluorescence-based biochemical high throughput dose response assay to identify inhibitors of phospholipase C isozymes (PLC-B3).

The target of assay [7] is Photoreceptor-specific nuclear receptor (Homo sapiens, UniProt Q9Y5X4). The assay is classed as functional, cell-based.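 Note: CHO-S cells with Gal4-NCOR and VP16-NR2E3 two-hybrid luciferase reporter.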
Assay [8] addresses T4, Corticotropin-releasing factor receptor 2/Corticotropin-releasing factor-binding protein (Homo sapiens, UniProt P24387+Q13324).
T4 sequence (Q13324 whole entry): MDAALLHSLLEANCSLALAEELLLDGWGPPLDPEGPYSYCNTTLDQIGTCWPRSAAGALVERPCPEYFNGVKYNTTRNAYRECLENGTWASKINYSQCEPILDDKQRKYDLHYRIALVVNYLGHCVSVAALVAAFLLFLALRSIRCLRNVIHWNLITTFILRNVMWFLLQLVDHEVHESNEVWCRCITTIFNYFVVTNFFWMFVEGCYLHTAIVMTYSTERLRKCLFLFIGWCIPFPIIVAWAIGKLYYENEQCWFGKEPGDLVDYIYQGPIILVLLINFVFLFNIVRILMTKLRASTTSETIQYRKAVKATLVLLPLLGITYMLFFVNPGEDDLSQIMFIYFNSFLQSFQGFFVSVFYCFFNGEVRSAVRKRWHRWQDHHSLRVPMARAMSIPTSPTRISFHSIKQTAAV
T4 sequence (P24387 whole entry): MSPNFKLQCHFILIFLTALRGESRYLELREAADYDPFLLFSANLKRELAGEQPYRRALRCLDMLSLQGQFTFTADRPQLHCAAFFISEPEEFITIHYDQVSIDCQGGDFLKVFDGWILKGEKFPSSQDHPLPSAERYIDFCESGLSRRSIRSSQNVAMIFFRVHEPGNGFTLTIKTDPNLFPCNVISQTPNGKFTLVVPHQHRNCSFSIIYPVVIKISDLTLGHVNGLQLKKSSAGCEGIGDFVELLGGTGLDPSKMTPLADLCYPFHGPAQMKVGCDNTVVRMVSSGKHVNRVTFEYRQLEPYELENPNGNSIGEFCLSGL
The assay is described as follows: activators of CRF receptor 2 with binding protein – uHTS hits, confirmation (AID 602473). The assay is classed as functional. The conditions noted are these: read-out: EC50_Mean.

Assay [9] deals with T5, Heat shock factor protein 1 (Mus musculus, UniProt P38532).
T5 sequence (P38532 whole entry): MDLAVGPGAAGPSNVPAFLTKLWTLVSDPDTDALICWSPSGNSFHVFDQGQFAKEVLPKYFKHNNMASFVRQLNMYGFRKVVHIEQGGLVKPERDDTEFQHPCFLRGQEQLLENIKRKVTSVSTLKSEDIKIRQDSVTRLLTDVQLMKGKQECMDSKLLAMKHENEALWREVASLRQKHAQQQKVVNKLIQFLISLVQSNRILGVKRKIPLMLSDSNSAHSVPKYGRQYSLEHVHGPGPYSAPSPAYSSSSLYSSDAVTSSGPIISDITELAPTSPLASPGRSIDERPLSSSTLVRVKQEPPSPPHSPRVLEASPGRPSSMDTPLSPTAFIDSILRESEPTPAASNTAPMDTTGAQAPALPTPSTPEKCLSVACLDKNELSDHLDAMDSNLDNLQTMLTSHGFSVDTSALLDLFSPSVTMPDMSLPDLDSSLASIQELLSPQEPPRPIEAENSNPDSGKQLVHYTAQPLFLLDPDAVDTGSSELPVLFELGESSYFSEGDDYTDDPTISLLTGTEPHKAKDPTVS
In words: inhibition of MG132-induced HSE-luciferase signal, confirmation, cell-based, NIH3T3, luminescence, dose retest (AID 2382).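 Note: NIH3T3 fibroblasts with HSF1-driven luciferase reporter stressed by proteasome inhibitor MG132; luminescence from HSF1-driven luciferase expression after 8 hours of MG132 stress.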 The assay is classed as functional.

The target in assay [10] is T4, Corticotropin-releasing factor receptor 2/Corticotropin-releasing factor-binding protein. In words: Dose Response confirmation of uHTS hits for small molecule antagonists of the CRF-binding protein and CRF-R2 receptor complex. The conditions noted are these: read-out: IC50_Mean. In kind it is functional.
Assay [11] can be described thus: CRF-BP/CRF-R2 complex antagonists, dose response, cell-based, uHTS hits, 384-well (AID 651639). To be noted: read-out: IC50_Mean. In kind it is functional, Homo sapiens.
The target of assay [12] is Tyrosine-protein phosphatase non-receptor type 5 (Homo sapiens, UniProt P54829). The assay is described as follows: STEP phosphatase inhibitors, confirmation, biochemical, fluorescence intensity, uHTS hits (AID 602372). To be noted: read-out: IC50_Mean. The assay is classed as functional.
Assay [13] has as its target Tyrosine-protein phosphatase non-receptor type 11 (Homo sapiens, UniProt Q06124). The assay is described as follows: SHP2 phosphatase inhibition, dose response, selectivity assay for STEP inhibitor project, biochemical (AID 602367). In kind it is functional. To be noted: read-out: IC50_Mean.
The target in assay [14] is Dual specificity protein phosphatase 3 (Homo sapiens, UniProt P51452). In words: VHR phosphatase inhibition, dose response, selectivity assay for STEP inhibitor project, biochemical (AID 602374). The assay is classed as functional. The conditions noted are these: read-out: IC50_Mean.
Another assay concerns the target T6, Caspase-6 (Homo sapiens, UniProt P55212).
T6 sequence (P55212 whole entry): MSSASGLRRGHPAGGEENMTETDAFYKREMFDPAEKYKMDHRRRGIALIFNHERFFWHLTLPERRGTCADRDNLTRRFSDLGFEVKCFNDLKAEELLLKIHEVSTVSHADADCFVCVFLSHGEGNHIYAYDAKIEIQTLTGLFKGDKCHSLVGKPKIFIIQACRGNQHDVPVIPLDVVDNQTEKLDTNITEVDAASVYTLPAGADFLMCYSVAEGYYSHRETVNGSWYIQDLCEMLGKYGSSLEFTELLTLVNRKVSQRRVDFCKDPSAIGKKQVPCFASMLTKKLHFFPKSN
In words: human caspase-6 inhibitors, dose response, biochemical, VEID-R110 fluorescence, cherry-pick (AID 720632).

T1 sequence (P08183 whole entry): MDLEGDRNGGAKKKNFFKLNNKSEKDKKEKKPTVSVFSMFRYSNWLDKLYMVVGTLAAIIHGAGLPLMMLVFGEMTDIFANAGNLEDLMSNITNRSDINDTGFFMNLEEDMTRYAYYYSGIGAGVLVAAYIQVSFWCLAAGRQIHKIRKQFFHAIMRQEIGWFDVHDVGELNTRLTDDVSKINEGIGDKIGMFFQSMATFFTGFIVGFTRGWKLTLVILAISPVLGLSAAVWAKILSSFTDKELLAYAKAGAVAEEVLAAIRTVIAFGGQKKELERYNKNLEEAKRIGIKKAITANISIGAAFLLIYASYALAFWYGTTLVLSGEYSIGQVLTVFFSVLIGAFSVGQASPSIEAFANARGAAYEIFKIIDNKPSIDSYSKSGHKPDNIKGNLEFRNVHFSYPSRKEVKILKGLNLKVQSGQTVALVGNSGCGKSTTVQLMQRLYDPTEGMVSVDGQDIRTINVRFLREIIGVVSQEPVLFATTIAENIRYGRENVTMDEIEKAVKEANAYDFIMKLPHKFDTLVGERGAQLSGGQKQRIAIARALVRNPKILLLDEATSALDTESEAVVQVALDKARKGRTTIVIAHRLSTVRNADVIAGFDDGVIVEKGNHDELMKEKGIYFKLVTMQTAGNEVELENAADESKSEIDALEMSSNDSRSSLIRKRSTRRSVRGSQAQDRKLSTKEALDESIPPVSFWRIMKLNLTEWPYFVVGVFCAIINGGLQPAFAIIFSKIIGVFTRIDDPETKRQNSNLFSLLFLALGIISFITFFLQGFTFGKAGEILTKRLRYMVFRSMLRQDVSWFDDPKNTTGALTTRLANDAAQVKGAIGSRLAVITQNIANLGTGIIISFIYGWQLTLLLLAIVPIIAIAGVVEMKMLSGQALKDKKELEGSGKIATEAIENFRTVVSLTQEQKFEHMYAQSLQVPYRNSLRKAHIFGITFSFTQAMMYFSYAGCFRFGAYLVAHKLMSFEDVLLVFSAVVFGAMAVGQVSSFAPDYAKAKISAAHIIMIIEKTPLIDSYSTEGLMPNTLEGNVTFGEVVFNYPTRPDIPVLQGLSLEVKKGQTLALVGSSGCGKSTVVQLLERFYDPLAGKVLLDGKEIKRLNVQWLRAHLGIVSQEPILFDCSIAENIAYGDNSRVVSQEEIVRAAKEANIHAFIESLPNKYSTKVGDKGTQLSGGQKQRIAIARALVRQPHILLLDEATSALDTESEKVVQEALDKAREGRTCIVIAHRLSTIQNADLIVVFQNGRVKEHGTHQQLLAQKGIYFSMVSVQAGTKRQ
Tyrosine-protein phosphatase non-receptor type 5, sequence (P54829 whole entry): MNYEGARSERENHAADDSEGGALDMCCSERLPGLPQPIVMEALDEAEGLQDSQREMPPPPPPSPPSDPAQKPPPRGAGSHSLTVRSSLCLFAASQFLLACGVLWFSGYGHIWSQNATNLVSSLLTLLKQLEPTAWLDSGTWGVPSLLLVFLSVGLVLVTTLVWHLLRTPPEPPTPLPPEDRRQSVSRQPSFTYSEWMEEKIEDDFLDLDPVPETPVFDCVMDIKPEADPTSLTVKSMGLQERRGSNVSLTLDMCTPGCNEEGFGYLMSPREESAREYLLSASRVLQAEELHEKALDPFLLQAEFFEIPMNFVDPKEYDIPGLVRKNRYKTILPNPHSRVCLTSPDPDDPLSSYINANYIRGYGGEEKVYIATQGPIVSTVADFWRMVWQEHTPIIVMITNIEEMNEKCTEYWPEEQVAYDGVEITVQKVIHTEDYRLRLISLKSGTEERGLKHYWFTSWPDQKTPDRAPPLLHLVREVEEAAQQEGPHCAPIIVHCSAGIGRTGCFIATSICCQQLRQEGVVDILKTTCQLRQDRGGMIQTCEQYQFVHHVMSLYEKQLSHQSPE
Tyrosine-protein phosphatase non-receptor type 11, sequence (Q06124 whole entry): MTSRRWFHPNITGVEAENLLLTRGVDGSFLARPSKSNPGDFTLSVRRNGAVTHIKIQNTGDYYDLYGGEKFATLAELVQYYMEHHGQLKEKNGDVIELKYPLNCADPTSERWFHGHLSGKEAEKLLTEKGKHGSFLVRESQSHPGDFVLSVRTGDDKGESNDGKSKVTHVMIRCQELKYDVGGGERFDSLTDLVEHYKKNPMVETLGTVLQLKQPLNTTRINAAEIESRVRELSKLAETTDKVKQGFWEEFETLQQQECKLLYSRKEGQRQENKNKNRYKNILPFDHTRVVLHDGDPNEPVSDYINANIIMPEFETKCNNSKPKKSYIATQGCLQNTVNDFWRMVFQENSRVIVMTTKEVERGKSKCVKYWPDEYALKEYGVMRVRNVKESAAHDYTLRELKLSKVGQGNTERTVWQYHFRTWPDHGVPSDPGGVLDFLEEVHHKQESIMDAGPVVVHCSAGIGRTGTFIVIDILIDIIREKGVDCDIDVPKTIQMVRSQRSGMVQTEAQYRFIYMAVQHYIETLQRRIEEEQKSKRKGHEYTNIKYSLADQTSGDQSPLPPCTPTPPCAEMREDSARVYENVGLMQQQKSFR
Photoreceptor-specific nuclear receptor, sequence (Q9Y5X4 whole entry, the tested form may be a part): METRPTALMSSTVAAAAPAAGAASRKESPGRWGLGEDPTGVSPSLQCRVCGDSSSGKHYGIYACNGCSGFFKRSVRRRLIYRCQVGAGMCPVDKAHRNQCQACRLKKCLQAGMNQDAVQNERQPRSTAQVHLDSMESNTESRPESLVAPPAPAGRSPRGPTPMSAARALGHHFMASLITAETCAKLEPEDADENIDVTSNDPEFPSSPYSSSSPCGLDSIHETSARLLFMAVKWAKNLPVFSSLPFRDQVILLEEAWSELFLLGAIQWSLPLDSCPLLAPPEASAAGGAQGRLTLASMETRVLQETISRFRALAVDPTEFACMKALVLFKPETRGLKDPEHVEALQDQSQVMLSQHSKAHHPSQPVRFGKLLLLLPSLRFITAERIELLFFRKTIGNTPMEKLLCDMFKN
Dual specificity protein phosphatase 3, sequence (P51452 whole entry): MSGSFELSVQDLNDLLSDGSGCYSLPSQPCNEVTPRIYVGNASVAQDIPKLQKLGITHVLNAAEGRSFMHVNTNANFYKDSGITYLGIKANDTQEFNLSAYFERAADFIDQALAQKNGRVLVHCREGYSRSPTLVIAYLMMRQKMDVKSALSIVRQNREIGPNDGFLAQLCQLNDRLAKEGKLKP
Protein Wnt-3a, sequence (P27467 whole entry, the tested form may be a part): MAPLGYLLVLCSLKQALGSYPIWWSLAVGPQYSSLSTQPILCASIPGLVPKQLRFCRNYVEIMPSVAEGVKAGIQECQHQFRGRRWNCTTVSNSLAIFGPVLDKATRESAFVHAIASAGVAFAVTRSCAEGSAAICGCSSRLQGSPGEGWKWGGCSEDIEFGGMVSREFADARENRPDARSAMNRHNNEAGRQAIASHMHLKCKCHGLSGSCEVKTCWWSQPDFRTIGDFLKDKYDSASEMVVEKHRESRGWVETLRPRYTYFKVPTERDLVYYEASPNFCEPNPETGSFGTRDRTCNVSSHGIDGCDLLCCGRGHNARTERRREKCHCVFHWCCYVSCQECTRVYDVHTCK
Hepatocyte nuclear factor 4-alpha, sequence (P41235 whole entry): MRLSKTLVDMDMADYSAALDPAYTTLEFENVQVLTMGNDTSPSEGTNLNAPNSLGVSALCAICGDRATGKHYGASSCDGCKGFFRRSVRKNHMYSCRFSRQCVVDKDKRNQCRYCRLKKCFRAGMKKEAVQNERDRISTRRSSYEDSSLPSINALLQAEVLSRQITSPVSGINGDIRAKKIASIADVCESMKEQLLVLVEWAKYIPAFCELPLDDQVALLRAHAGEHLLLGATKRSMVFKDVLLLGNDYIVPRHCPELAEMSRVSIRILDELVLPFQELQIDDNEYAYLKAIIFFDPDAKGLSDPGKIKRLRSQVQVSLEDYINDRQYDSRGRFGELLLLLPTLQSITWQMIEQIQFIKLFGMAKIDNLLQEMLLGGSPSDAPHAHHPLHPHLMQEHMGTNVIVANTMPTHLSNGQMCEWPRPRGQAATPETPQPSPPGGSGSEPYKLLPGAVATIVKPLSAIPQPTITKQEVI

As for `N#Cc1ccc(C(C(=O)NC2CCCCC2)n2c(=O)c(-c3ccco3)nc3ccccc32)cc1` (stereo unspecified), the IC50 in assay [1] was 2.39 µM (active).
`Cc1cc(N2CCN(C(=O)c3ccco3)CC2)n2nc(C)c(-c3ccc(Cl)cc3)c2n1`: the EC50 is 17.7 µM (inactive) in [2] and 28.1 µM (inactive) in assay [3].
For `CCC(C)CCN1C(N(C)C)=NC[C@@H]1CC(C)C` (stereo partly specified), the IC50 at Protein Wnt-3a was 6.72 µM (active).
For the compound `CCOc1ccccc1Nc1nc(N)nc(CN(C)C2CCCCC2)n1`, in assay [4], the AC50 was 80.6 µM (active). Further, the IC50 in assay [5] and in [6] was > 123 µM (inactive) in each case.
As for `CC(C(=O)N1CCN(c2ccc(Cl)cc2)CC1)c1ncc(C(F)(F)F)cc1Cl` (stereo unspecified), the IC50 in [7] is 3.65 µM (active).
`COc1cccc2cc(-c3nnc(-c4ccccc4)o3)c(=O)oc12`: the EC50 is > 53 µM (inactive) in assay [8] and 70.4 µM (active) in assay [9]. Also, the IC50 in assay [10] is < 0.368 µM (active); in [11], 0.675 µM (active).
As to `COC(=O)c1ccccc1CSc1nsc(/C=C/N(C)C)c1C#N`, the IC50 in assay [12] is 14.5 µM (active); in assay [13], 2.38 µM (active); in [14], 1.29 µM (active). For the same compound, the AC50 at Caspase-6 was 34.5 µM (active).

In general, AC50 refers to the concentration at which the activity in the assay is half-maximal.
